Test results: patent publication US10752628B2, “Compounds and methods for treating synovial sarcomas” (THE BROAD INSTITUTE, INC., priority 2015, dated 2020)

How the values were obtained:
Format in all cases: cell-based, human
[1] = tested on: BAF47 within the BAF complex; assay: BAF155 immunoprecipitation and western blot for BAF47 in Aska cells; conditions: for BAF47 stabilization within the BAF complex (BAF155 immunoprecipitation): Aska cells, twenty-four hours, single 30 micromolar dose
Method: These include resynthesized positive hits for Compounds 5-6.
FIG. 8 comprises a series of images and graph illustrating the activity of Compound 5 in Yamato cells. Briefly, Yamato cells were treated with 30 μM compound for 24 hours over n=5 replicates. The graph depicts levels of BAF47 in DMSO treated vs Compound 5-treated cells.
(§1) All cell types were grown under standard conditions and lysed and homogenized in Buffer A (10 mM Hepes (pH 7.6), 25 mM KCl, 1 mM EDTA, 10% glycerol, 1 mM DTT, and protease inhibitors (complete mini tablets (Roche) supplemented with 1 mM PMSF) on ice. Nuclei were sedimented by centrifugation (1,000×g), resuspended in Buffer C (10 mM Hepes (pH 7.6), 3 mM MgCl2, 100 mM KCl, 0.1 mM EDTA, 10% glycerol, 1 mM DTT, and protease inhibitors), and lysed by the addition of ammonium sulfate to a final concentration of 0.3 M. Soluble nuclear proteins were separated by the insoluble chromatin fraction by ultracentrifugation (100,000×g) and precipitated with […] ammonium sulfate for 20 min on ice. Protein precipitate was isolated by ultracentrifugation (100,000×g), and resuspended in IP buffer (150 mM NaCl, 50 mM Tris-HCl (pH 8.0), 1% NonidetP-40, 0.5% deoxycholate, 1 mM DTT, 1 mM PMSF with protease inhibitors) for immunoprecipitation analyses or HEMG-0 buffer (25 mM HEPES pH 7.9, 0.1 mM EDTA, 12.5 mM MgCl2, 100 mM KCl, freshly supplemented with DTT and PMSF) for glycerol gradient analyses.
(§2) Nuclear extracts were resuspended in IP buffer and precleared for 30 minutes at 4 degrees C. using Protein G/A Sepharose beads (GE Healthcare). The protein concentration was determined using Bradford assay and adjusted to a final volume of 250 μL at a final concentration of 1.5 mg/mL with IP buffer. Each IP was incubated with 2.5 μg of antibody overnight at 4° C. and then for 2 h with 20 μL Protein A/G Sepharose beads. The beads were washed four times at room temperature with 1 mL IP buffer and resuspended in 20 μL 2× gel loading buffer (4×LDS Buffer; Invitrogen)+DTT.

[2] = tested on: BAF47; assay: Time and dose study of Compound 11 on BAF47 stability in Aska cells; conditions: 0-30 micromolar, 24, 48 and 72 hours
Method: FIG. 9 comprises a set of bar graphs illustrating the effects of Compound 11 (illustrated), the lead compound lacking the hydroxyl group, as a function of time and dose in Aska cells.
Compound 11 was added at doses from 0-30 micromolar, and the results monitored at 24, 48, and 72 hours after treatment.

[3] = tested on: BAF47 within the BAF complex; assay: anti-Brg immunoprecipitation of BAF complexes followed by anti-BAF47 western blot in Aska cells; conditions: 48 hours at 16 μM, relative to DMSO control
Method: Briefly, naïve, unmodified Aska SS cells were treated for 48 hours at 16 μM concentration of all 5 positive hit compounds (as well as negative compounds for controls). The western blot reflects IPs of BAF complexes highlighting increased incorporation/stability of BAF47 relative to DMSO control. The bar graph highlights levels of BAF47 (measured via western blot quantitative densitometry) over n=3 experiments for each compound, including testing against three other negative compounds.
as §1, §2

[4] = tested on: Aska synovial sarcoma cells; assay: Synovial sarcoma cell viability by CellTiter Glo luminescence
Method: FIGS. 15A-15C comprise a set of graphs illustrating the finding that compounds of the invention reduce synovial sarcoma cell viability as measured by CellTiter Glog luminescence.
The effect of compounds of the invention on synovial sarcoma cell viability was assessed as measured by CellTiter Glo® luminescence (FIGS. 15A-15B). Briefly, cells were plated under standard conditions and allowed to grow to 75% confluence prior to treatment with compounds. CellTiterGlo reagent was used to measure cell viability.

| SMILES | BAF47 stabilization within the BAF complex (BAF155 immunoprecipitation) [1] | BAF47 stability as a function of time and dose [2] | BAF47 stabilization (anti-Brg IP, anti-BAF47 western blot) [3] | BAF47 stabilization (western blot image, FIG. 8 lower panel) ([1]; Aska-SS cells upon treatment with Compound 5) | Cell viability (CellTiter Glo luminescence) [4] |
| --- | --- | --- | --- | --- | --- |
| COc1ccc2c3c([nH]c2c1)CN(Cc1ccccc1F)CC31CCN(C(=O)C2CCC2)CC1 [Compound 11, cyclobutyl(2′-(2-fluorobenzyl)-7′-methoxy-1′,2′,3′,9′-tetrahydrospiro[piperidine-4,4′-pyrido[3,4-b]indol]-1-yl)methanone] | stabilized BAF47 within the BAF complex | increases BAF47 stability in dose-dependent manner | – | – | – |
| C[C@@H]1CN([C@H](C)CO)C(=O)c2cc(NC(=O)NC3CCCCC3)ccc2O[C@@H]1CN(C)S(=O)(=O)c1cccs1 [Compound 3, N-(((2S,3R)-8-(3-cyclohexylureido)-5-((R)-1-hydroxypropan-2-yl)-3-methyl-6-oxo-3,4,5,6-tetrahydro-2H-benzo[b][1,5]oxazocin-2-yl)methyl)-N-methylthiophene-2-sulfonamide] | – | – | stabilized BAF47 | – | – |
| COc1ccc2c3c([nH]c2c1)[C@@H](CO)N(Cc1ccccc1F)CC31CCN(C(=O)C2CCC2)CC1 [Compound 5, (S)-cyclobutyl(2′-(2-fluorobenzyl)-1′-(hydroxymethyl)-7′-methoxy-1′,2′,3′,9′-tetrahydrospiro[piperidine-4,4′-pyrido[3,4-b]indol]-1-yl)methanone] | stabilized BAF47 within the BAF complex | – | stabilized BAF47 | stabilization of BAF47 | resulted in cell toxicity |
| C[C@@H]1CCCCO[C@@H](CN(C)Cc2ccc(C(=O)Nc3ccccc3N)cc2)[C@H]2C[C@@H](CO)N(C2)C(=O)c2cc(N(C)C)ccc2O1 [Compound 8, N-(2-aminophenyl)-4-(((((13S,15R,5R,11R)-35-(dimethylamino)-15-(hydroxymethyl)-5-methyl-2-oxo-4,10-dioxa-1(1,3)-pyrrolidina-3(1,2)-benzenacycloundecaphane-11-yl)methyl)(methyl)amino)methyl)benzamide] | – | – | stabilized BAF47 | – | – |
| C[C@@H]1CN([C@H](C)CO)C(=O)c2cccc(NC(=O)c3ccc(-c4nccs4)cc3)c2O[C@@H]1CN(C)Cc1ccc(C(=O)Nc2ccccc2N)cc1 [Compound 1, N-(2-aminophenyl)-4-(((((2S,3R)-5-((R)-1-hydroxypropan-2-yl)-3-methyl-6-oxo-10-(4-(thiazol-2-yl)benzamido)-3,4,5,6-tetrahydro-2H-benzo[b][1,5]oxazocin-2-yl)methyl)(methyl)amino)methyl)benzamide] | – | – | stabilized BAF47 | – | – |
